Test results as given in the supplement of paper PMC6045584.
± gives the standard deviation of the averaged measurements.

How the values were obtained:
[1] = compound: COc1cc2c(Oc3ccc(NC(=O)C4(C(=O)Nc5ccc(F)cc5)CC4)cc3F)ccnc2cc1OCCCN1CCOCC1 [FORETINIB]; experiment: surviving fraction relative to DMSO-only wells; higher = less growth inhibition; settings: exposure time: 5 days
In short: (§1)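 Viability values are CellTiter-Glo luminescence readings, given as surviving fraction against the median of DMSO-only wells. The readings were taken after 10 minutes at room temperature, following five days of continuous exposure to inhibitors at 0.5, 1, 5, 10, 50, 100, 500 and 1000 nM that began 24 hours after log-phase tumour cell lines were seeded at 250–500 cells per well in 384-well plates. Every line was screened three times and kept only if replicate Pearson r >0.7 and median Z' >0.3.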

[2] = compound: Cc1nc(Nc2ncc(C(=O)Nc3c(C)cccc3Cl)s2)cc(N2CCN(CCO)CC2)n1 [DASATINIB]; experiment: as above; settings: exposure time: 5 days
In short: as §1

Test System | surviving fraction ([1]; 0.5 nM) | surviving fraction ([1]; 1 nM) | surviving fraction ([1]; 5 nM) | surviving fraction ([1]; 10 nM) | surviving fraction ([1]; 50 nM) | surviving fraction ([1]; 100 nM) | surviving fraction ([1]; 500 nM) | surviving fraction ([1]; 1000 nM) | surviving fraction ([2]; 0.5 nM) | surviving fraction ([2]; 1 nM) | surviving fraction ([2]; 5 nM) | surviving fraction ([2]; 10 nM) | surviving fraction ([2]; 50 nM) | surviving fraction ([2]; 100 nM) | surviving fraction ([2]; 500 nM) | surviving fraction ([2]; 1000 nM)
SIHA CERVIX | 1.12 ± 0.02 | 1.18 ± 0.04 | 1.09 ± 0.046 | 1.09 ± 0.081 | 1.01 ± 0.066 | 1.01 ± 0.031 | 0.667 ± 0.019 | 0.523 ± 0.0076 | 0.876 ± 0.016 | 0.806 ± 0.013 | 0.74 ± 0.026 | 0.742 ± 0.019 | 0.772 ± 0.046 | 0.648 ± 0.052 | 0.561 ± 0.0062 | 0.543 ± 0.027
SJSA1 BONE | 1.14 ± 0.026 | 1.7 ± 0.03 | 1.69 ± 0.15 | 1.74 ± 0.063 | 1.48 ± 0.1 | 1.74 ± 0.075 | 1.46 ± 0.069 | 1.83 ± 0.038 | 1.23 ± 0.065 | 1.14 ± 0.044 | 1.16 ± 0.19 | 1.24 ± 0.1 | 0.0427 ± 0.0032 | 1.6 ± 0.093 | 1.7 ± 0.029 | 0.174 ± 0.019
SKBR3 BREAST | 1.11 ± 0.02 | 1.14 ± 0.15 | 1.08 ± 0.063 | 1.08 ± 0.15 | 1.13 ± 0.066 | 0.982 ± 0.064 | 0.886 ± 0.065 | 0.868 ± 0.11 | 0.718 ± 0.024 | 0.802 ± 0.1 | 0.722 ± 0.097 | 0.822 ± 0.063 | 1.01 ± 0.093 | 1.1 ± 0.086 | 1.13 ± 0.12 | 0.942 ± 0.022
SNU475 LIVER | 1.05 ± 0.052 | 1.03 ± 0.025 | 0.957 ± 0.087 | 1 ± 0.036 | 0.967 ± 0.016 | 0.979 ± 0.035 | 0.853 ± 0.055 | 0.502 ± 0.03 | 0.799 ± 0.0098 | 0.774 ± 0.018 | 0.602 ± 0.021 | 0.519 ± 0.036 | 0.469 ± 0.02 | 0.349 ± 0.021 | 0.242 ± 0.025 | 0.255 ± 0.032
SUM44 BREAST | 1.14 ± 0.27 | 1.19 ± 0.36 | 1.18 ± 0.27 | 1.23 ± 0.31 | 1.19 ± 0.21 | 1.26 ± 0.32 | 1.11 ± 0.17 | 1.12 ± 0.19 | 0.88 ± 0.035 | 0.824 ± 0.085 | 0.941 ± 0.062 | 0.865 ± 0.13 | 1.14 ± 0.23 | 1.12 ± 0.15 | 1.09 ± 0.13 | 0.99 ± 0.055
